Results published in patent US8937065B2, “Compositions and methods for modulating a kinase” (Clevexel Pharma, priority 2011, dated 2015).
≈ marks a conversion by molar mass, not a printed value.

What was measured:
physchem = details: pH 7.4, aqueous buffer, thermodynamic from solid
Method: The test concentration was 100 μM (0% of DMSO for test compounds, 1% of DMSO for reference compounds). The test system was a 100 mM phosphate buffer (pH 7.4). Sample size was duplicates (n=2) and the bioanalytical method was LC-UV (Agilent-1200). Mobile phase A: H2O-1% TFA, B: MeOH-1% TFA; column Boston Symmetrix ODS-H (2.1×50 mm, 5 μm); LC conditions 0.4 mL/Min.
Assay Procedure • 1. For reference compounds: • Add 8 μL of 10 mM DMSO stock solution into 792 μL of 100 mM phosphate buffer (n=2). Final conc.=100 μM (1% of DMSO)
For test compounds: • Add 8 μL of 10 mM DMSO stock solution into the tubes (n=2). • Dry the samples under nitrogen. • Add 800 μL of 100 mM phosphate buffer into the tubes. Final conc.=100 μM (0% of DMSO) • 2. Sample tubes are shaken for 1 hour (1000 rpm) at room temperature and 37° C. • 3. Samples are centrifuged (10 min-12000 rpm) to precipitate un-dissolved particles. • 4. Supernatants are transferred to new tubes • 5. Concentrations of the supernatants after centrifugation are determined by LC-UV detection.

[1] = test system: Interleukin 4/STAT6-STAT6-bla RA1; test: Interleukin 4/STAT6-STAT6-bla RA1 inhibition (IL-4-stimulated STAT6 activity in Ramos cells); type: cell-based; details: Homo sapiens, Ramos; Table 1, 6th column; read-out: Cell based IL4 stimulation IC50
Method: The inhibition of Interleukin 4/STAT6-STAT6-bla RA1 (activated by IL-4) by several compounds was determined using the Screening Protocol and Assay Conditions (Invitrogen, Madison, Wis.). The assays were performed according to manufacturer's protocols. Example 4, Cell-line Specific Protocols IL-4-stimulated STAT6 activity in Ramos cells for details.
Mechanism-based inhibition assays using compound 7A (Table 1) were performed using GeneBLAzer® Technology (Invitrogen Corporation), according to manufacturer specifications. […] In this state, excitation of the coumarin results in fluorescence resonance energy transfer to the fluorescein moiety and emission of green light. […] Excitation of the coumarin in the presence of Beta-lactamase activity results in a blue fluorescence signal. […]
An activator assay screen was run to obtain the EC80 concentration of the known activator to add in step 3. • 1. […] 4 μL of the EC80 concentration of activator, as determined in an Activator assay, was added to all wells containing compound and known inhibitor to bring the final assay volume to 40 μL. • 4. […] The assay plate was read on a fluorescence plate reader (Tecan Safire) and the data is analyzed. […]
STAT6-bla RA1 cells were thawed. […] The plate was read on a fluorescence plate reader.

JAK3 = biological target: T1, JAK3 (Homo sapiens, UniProt P52333); test: JAK3 enzymatic activity assay (Z'-LYTE Biochemical Kinase Assay, 2 hr preincubation at 4° C.); details: cell free, 1% DMSO, read-out: JAK3 activity cell free (2 hr preincubation at (4° C.) Kj)
T1 construct: purchased Invitrogen, Madison, Wis
T1 sequence (P52333 1-1124): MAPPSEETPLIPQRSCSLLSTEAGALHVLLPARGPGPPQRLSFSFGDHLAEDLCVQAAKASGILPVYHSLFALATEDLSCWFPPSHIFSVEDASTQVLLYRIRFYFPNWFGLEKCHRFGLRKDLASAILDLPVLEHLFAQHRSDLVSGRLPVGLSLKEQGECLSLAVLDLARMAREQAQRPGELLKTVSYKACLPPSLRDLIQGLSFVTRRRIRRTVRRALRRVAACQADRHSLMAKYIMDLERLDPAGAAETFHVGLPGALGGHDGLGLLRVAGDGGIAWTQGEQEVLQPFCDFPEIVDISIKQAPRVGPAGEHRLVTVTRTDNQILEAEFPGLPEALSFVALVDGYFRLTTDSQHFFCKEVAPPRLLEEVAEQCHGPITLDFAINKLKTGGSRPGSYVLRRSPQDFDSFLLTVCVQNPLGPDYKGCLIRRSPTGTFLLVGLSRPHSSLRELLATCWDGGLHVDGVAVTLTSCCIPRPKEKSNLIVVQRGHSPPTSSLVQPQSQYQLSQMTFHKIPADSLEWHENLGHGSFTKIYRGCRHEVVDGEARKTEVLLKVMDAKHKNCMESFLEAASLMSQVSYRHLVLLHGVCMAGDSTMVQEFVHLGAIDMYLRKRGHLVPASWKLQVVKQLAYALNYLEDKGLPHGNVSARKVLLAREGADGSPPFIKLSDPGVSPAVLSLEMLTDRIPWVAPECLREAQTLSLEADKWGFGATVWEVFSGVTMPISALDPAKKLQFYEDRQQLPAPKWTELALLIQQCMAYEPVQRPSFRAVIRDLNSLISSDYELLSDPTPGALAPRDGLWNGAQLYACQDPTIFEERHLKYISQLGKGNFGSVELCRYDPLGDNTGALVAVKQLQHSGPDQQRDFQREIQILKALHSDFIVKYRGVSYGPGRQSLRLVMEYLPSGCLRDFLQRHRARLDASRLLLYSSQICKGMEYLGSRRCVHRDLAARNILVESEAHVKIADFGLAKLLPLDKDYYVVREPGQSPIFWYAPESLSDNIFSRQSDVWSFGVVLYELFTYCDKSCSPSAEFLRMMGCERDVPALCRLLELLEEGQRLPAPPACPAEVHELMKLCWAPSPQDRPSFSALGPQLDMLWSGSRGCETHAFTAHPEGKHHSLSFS
Method: The assays were performed according to manufacturer's protocols, except that prior to the kinase reaction they were pre-incubated for 2 hours at 4° C., in order to be able to assay for time-dependent inhibition.
In addition to the compound, each 10 μL JAK3 kinase reaction contained 0.43-1.89 ng JAK3 and 2 μM peptide substrate in 50 mM HEPES (pH 7.5), 0.01% BRIJ-35, 10 mM MgCl2 and 1 mM EGTA. The kinase reaction was allowed to proceed for 1 hour.

SMILES | solubility at 1 h (physchem; Solubility (μM) Mean) | solubility at 1 h (physchem; Solubility in PBS) | further results
Cl.O=C(CN1CCOCC1)Nc1cccc(-c2nc(-c3c[nH]c(C(=O)N4CCCC4)c3)cs2)c1 [9X (sample 2), 2-morpholino-N-(3-(4-(5-(pyrrolidine-1-carbonyl)-1H-pyrrol-3-yl)thiazol-2-yl)phenyl)acetamide hydrochloride salt] | 51.9 µM | 10 to 80 µM | –
O=C(c1cc(-c2csc(-c3ccccc3)n2)c[nH]1)N1CCCC1 [11A] | – | – | IC50 [1]: 0.11 to 1 µM; Ki (JAK3): 1.1 to 10 µM
CC(=O)N1CCN(c2ccc(OCC3COC(Cn4ccnc4)(c4ccc(Cl)cc4Cl)O3)cc2)CC1 (centres unmarked) [Ketoconazole, reference compound] | 15.9 µM (≈ 8.45 µg/mL) | 15.9 µM (≈ 8.45 µg/mL) | –
CC(C)NCC(O)COc1cccc2ccccc12 (centres unmarked) [Propranolol, reference compound] | – | – | solubility at 1 h (physchem; Solubility (μM) Mean, kinetic solubility, 100 mM phosphate buffer (pH 7.4), test concentration 100 μM, n=2, LC-UV): > 100 µM; solubility at 1 h (physchem; Solubility in PBS, 100 mM phosphate buffer pH 7.4, test concentration 100 μM): ~100 µM (≈ 25.9 µg/mL)
